# In patent US20230109839A1, “THERAPEUTIC AGENT FOR TAUOPATHIES” (SUMITOMO PHARMA CO., LTD., priority 2020, published 2023):
# Read-outs that look alike come from different tables or passages of the source.
# Biological target: T1, human Nav1.1 (Homo sapiens, UniProt P35498)
# T1 construct: host or cells: HEK293
# Experiment: Amplification of Nav1.1-derived voltage-gated sodium current (Nav1.1 current), automated patch clamp (Test 1)
# Type: cell-based
# Method in brief: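 HEK293 cells stably expressing human Nav1.1, restricted to cells with >500 pA current, were recorded by automated voltage-clamp patch clamp with a ramp voltage stimulus. Compounds were applied in HEPES-buffered extracellular solution with 1% DMSO. Amplification (%) = 100×(peak or AUC after/before compound)−100.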
# [1] = Concentration for evaluation 1 μM, HEK293 cell line stably expressing human Nav1.1
# [2] = Concentration for evaluation 10 μM, HEK293 cell line stably expressing human Nav1.1
# [3] = concentration for evaluation 1 μM, HEK293 stably expressing human Nav1.1
# [4] = HEK293, concentration for evaluation 1 μM, HEK293 stably expressing human Nav1.1, read-out: Nav1.1 current amplification rate (%)
# [5] = Concentration for evaluation 3 μM, HEK293 cell line stably expressing human Nav1.1
# [6] = HEK293, Concentration for evaluation 1 μM, HEK293 cell line stably expressing human Nav1.1, read-out: Nav1.1 current amplification rate (%)
smiles,measurement,setting,value
CC1(C)CC=C(c2cnc3cnn(CC(=O)Nc4ccc5ncnn5c4)c3n2)CC1 [Example 649],Nav1.1 current amplification rate (%),[1],91%
CC1CC(C)CN(c2ccc(=O)n(CC(=O)Nc3ccc(C#N)cc3)n2)C1 (stereo not shown) [Example 15],Nav1.1 current amplification rate (%),[2],10%
CC1CCN(c2ccc(=O)n(CC(=O)Nc3ccc4oc(=O)[nH]c4c3)n2)CC1 [Example 82],Nav1.1 current amplification rate (%),[2],121%
"O=C(Cn1ncc2ncc(C3CCC3)nc21)Nc1ccn2ncnc2c1 [Example 576, 2-(6-Cyclobutyl-1H-pyrazolo[3,4-b]pyrazin-1-yl)-N-([1,2,4]triazolo[1,5-a]pyridin-7-yl)acetamide]",activation at 3 µM,"HEK293, Concentration for evaluation 3 μM, HEK293 cell line stably expressing human Nav1.1, read-out: Nav1.1 current amplification rate (%)",14%
N#Cc1ccc(NC(=O)Cn2nc(N3CCCC4(CCC4)C3)ccc2=O)cc1 [Example 33],Nav1.1 current amplification rate (%),[2],220%
O=C(Cn1ncc2ccc(N3CCC4(CC3)CC4)nc21)Nc1ccn2ncnc2c1 [Example 855],Nav1.1 current amplification rate (%),[3],93%
CC1CC=C(c2ccc(=O)n(CC(=O)N3CCc4c(CNC5CCOC5)cccc43)n2)CC1 (stereo not shown) [Example 316],Nav1.1 current amplification rate (%),[1],81%
COc1cc(=O)n(CC(=O)N2CCN(c3cncc(F)c3)CC2)nc1C1=CCC(C)(C)CC1 [Example 490],Nav1.1 current amplification rate (%),[2],469%
CC1CC=C(c2ccc(=O)n(CC(=O)Nc3cnc4c(cnn4C)c3)n2)CC1 (stereo not shown) [Example 348],Nav1.1 current amplification rate (%),[1],57%
CC1(C)CCN(c2ccc3cnn(CC(=O)Nc4ccn5ncnc5c4)c3n2)CC1 [Example 856],Nav1.1 current amplification rate (%),[3],50%
O=C(Cn1nc(-c2ccc(C(F)(F)F)nc2)ccc1=O)Nc1ccc2ocnc2c1 [Example 453],Nav1.1 current amplification rate (%),[2],15%
CC1CC=C(c2ccc(=O)n(CC(=O)N3CC=C(c4ccncc4)CC3)n2)CC1 (stereo not shown) [Example 419],Nav1.1 current amplification rate (%),[1],66%
CC(C)CN(C)c1ccc2cnn(CC(=O)Nc3ccn4ncnc4c3)c2n1 [Example 861],Nav1.1 current amplification rate (%),[3],78%
CC1CCN(c2ccc(=O)n(CC(=O)Nc3ccc4c(c3)ncn4C)n2)CC1 [Example 98],Nav1.1 current amplification rate (%),[2],15%
CC1CC=C(c2ccc(=O)n(CC(=O)Nc3ccn4cncc4c3)n2)CC1 (stereo not shown) [Example 338],Nav1.1 current amplification rate (%),[1],241%
Cc1ccc(N2CCN(C(=O)Cn3nc(C4=CCC(C)(C)CC4)ccc3=O)CC2)cn1 [Example 443],Nav1.1 current amplification rate (%),[2],114%
COC1CCN(c2nccc3c2CCN3C(=O)Cn2nc(C3=CCC(C)CC3)ccc2=O)CC1 (stereo not shown) [Example 309],Nav1.1 current amplification rate (%),[1],71%
CN(c1ccc2cnn(CC(=O)Nc3cnc4cccnc4c3)c2n1)C1CCCC1 [Example 891],activation at 1 µM,[4],81%
COc1ccc(NC(=O)Cn2ncc3cnc(N4CCC5(CC5)C(F)(F)C4)nc32)cn1 [Example 825],Nav1.1 current amplification rate (%),[3],30%
N#Cc1cc(NC(=O)Cn2nc(N3CCCCC3)ccc2=O)ccn1 [Example 116],activation at 10 µM,"HEK293, Concentration for evaluation 10 μM, HEK293 cell line stably expressing human Nav1.1, read-out: Nav1.1 current amplification rate (%)",12%
CCN(C)c1cnc2cnn(CC(=O)Nc3ccn4ncnc4c3)c2n1 [Example 623],Nav1.1 current amplification rate (%),[2],25%
CN(c1cnc2cnn(CC(=O)Nc3ccc4ncncc4c3)c2n1)C1CC1 [Example 728],Nav1.1 current amplification rate (%),[1],71%
CCN1CC(c2cccc3c2CCN3C(=O)Cn2nc(C3=CCC(C)CC3)ccc2=O)C1 (stereo not shown) [Example 302],Nav1.1 current amplification rate (%),[5],104%
CN(c1cnc2cnn(CC(=O)N3CCc4c(C5CC5)cccc43)c2n1)C1CC1 [Example 730],Nav1.1 current amplification rate (%),[1],133%
CC1CC=C(c2ccc(=O)n(CC(=O)Nc3cc4nccn4cc3C#N)n2)CC1 (stereo not shown) [Example 359],Nav1.1 current amplification rate (%),[2],26%
CC1CC=C(c2ccc(=O)n(CC(=O)N3CCc4c(-c5cccnc5)cccc43)n2)CC1 (stereo not shown) [Example 248],Nav1.1 current amplification rate (%),[5],392%
Cc1cc(NC(=O)Cn2ncc3ncc(N4CCC5(CC5)C(F)(F)C4)nc32)cc2ncnn12 [Example 741],activation at 1 µM,[6],61%
CC(=O)N1CC=C(c2nccc3c2CCN3C(=O)Cn2nc(C3=CCC(C)CC3)ccc2=O)C1 (stereo not shown) [Example 310],Nav1.1 current amplification rate (%),[1],87%
CN(c1cnc2cnn(CC(=O)Nc3ccc4ncncc4c3)c2n1)C1CC2(CC2)C1 [Example 759],activation at 1 µM,[6],57%
CC1CCN(c2ccc3cnn(CC(=O)Nc4ccc5cncnc5c4)c3n2)CC1 [Example 877],Nav1.1 current amplification rate (%),[3],263%
CC1CC=C(c2ncc3cnn(CC(=O)Nc4ccc5cncnc5c4)c3n2)CC1 (stereo not shown) [Example 805],Nav1.1 current amplification rate (%),[3],373%
CC1CCN(c2ccc3cnn(CC(=O)Nc4ccc5ocnc5c4)c3n2)CC1 [Example 876],Nav1.1 current amplification rate (%),[3],98%
CN(c1cnc2cnn(CC(=O)N3CCN(c4cccc(F)c4)CC3)c2n1)C1CC1 [Example 714],Nav1.1 current amplification rate (%),[5],11%
COCCN(C)Cc1cccc2c1CCN2C(=O)Cn1nc(C2=CCC(C)CC2)ccc1=O (stereo not shown) [Example 275],Nav1.1 current amplification rate (%),[1],46%
CC1CC=C(c2ccc(=O)n(CC(=O)N3CCOc4c(-c5cn[nH]c5)cccc43)n2)CC1 (stereo not shown) [Example 290],Nav1.1 current amplification rate (%),[5],94%
"CC1CC=C(c2cnc3cnn(CC(=O)Nc4ccn5ncnc5c4)c3n2)CC1 (stereo not shown) [Example 896, 2-[6-(4-methylcyclohex-1-en-1-yl)-1H-pyrazolo[3,4-b]pyrazin-1-yl]-N-([1,2,4]triazolo[1,5-a]pyridin-7-yl)acetamide]",Nav1.1 current amplification rate (%),[3],241%
CC1CC=C(c2ccc(=O)n(CC(=O)Nc3ccnc(N4CCOCC4)c3F)n2)CC1 (stereo not shown) [Example 383],Nav1.1 current amplification rate (%),[1],84%
CN(c1cnc2cnn(CC(=O)Nc3ccc4ncncc4c3)c2n1)C1CC(C)(C)C1 [Example 758],activation at 1 µM,[6],61%
CC1CC=C(c2ccc(=O)n(CC(=O)N3CCc4c3ccc(F)c4-c3ccnnc3)n2)CC1 (stereo not shown) [Example 295],Nav1.1 current amplification rate (%),[1],95%
Cc1cc(NC(=O)Cn2ncc3ncc(N(C)CC4CC4)nc32)cc2ncnn12 [Example 745],activation at 1 µM,[6],43%
CN(c1cnc2cnn(CC(=O)Nc3ccc4ncnn4c3)c2n1)C1CC2(CC2)C1 [Example 666],Nav1.1 current amplification rate (%),[1],64%
CC1CC=C(c2ccc(=O)n(CC(=O)N3CCN(c4cncc(F)c4)CC3)n2)CC1 (stereo not shown) [Example 263],Nav1.1 current amplification rate (%),[2],342%
CC1CC=C(c2ccc(=O)n(CC(=O)Nc3ccc4cncn4c3)n2)CC1 (stereo not shown) [Example 344],Nav1.1 current amplification rate (%),[1],69%
CC1=CCN(c2ncc3cnn(CC(=O)Nc4ccn5ncnc5c4)c3n2)CC1 [Example 784],Nav1.1 current amplification rate (%),[1],45%
O=C(Cn1ncc2cnc(N3CCC(F)(F)CC3)nc21)Nc1ccn2ncnc2c1 [Example 768],Nav1.1 current amplification rate (%),[1],18%
CC1CCN(c2ccc3cnn(CC(=O)Nc4ccc5cnnn5c4)c3n2)CC1 [Example 878],Nav1.1 current amplification rate (%),[3],42%
CC1CC=C(c2ccc(=O)n(CC(=O)N3CCc4c(Cn5ccnc5)cccc43)n2)CC1 (stereo not shown) [Example 286],Nav1.1 current amplification rate (%),[1],848%
CC1CC=C(c2ccc(=O)n(CC(=O)N3CCc4c(-c5cc[nH]n5)ccc(F)c43)n2)CC1 (stereo not shown) [Example 292],Nav1.1 current amplification rate (%),[1],46%
O=C(Cn1ncc2cnc(N3CCC4(CCC4)C3)nc21)Nc1ccc2cncnc2c1 [Example 807],Nav1.1 current amplification rate (%),[3],86%
CC1CC=C(c2ccc(=O)n(CC(=O)Nc3ccc(-n4ccnc4)nc3)n2)CC1 (stereo not shown) [Example 377],Nav1.1 current amplification rate (%),[1],134%
CC1(C)CCN(c2ccc3cnn(CC(=O)Nc4ccn5ncnc5c4)c3n2)C1 [Example 857],Nav1.1 current amplification rate (%),[3],18%
CC1CC=C(c2ccc3cnn(CC(=O)N4CCc5c(N6CCOCC6)cccc54)c3n2)CC1 (stereo not shown) [Example 882],activation at 1 µM,[4],88%
